The test system of one series is Zone of skin. Briefly: Permeability in human skin after 48 hrs by Franz cell permeability assay.
Settings: not given
Take `CCN1CCCC1CNC(=O)c1cc(S(N)(=O)=O)ccc1OC` (centres undefined) [SULPIRIDE]: the “log Pe” value is listed as -1.48. For the compound `O=C(O)c1cc(/N=N/c2ccc(S(=O)(=O)Nc3ccccn3)cc2)ccc1O` [SULFASALAZINE], the “log Pe” value was -1.31. Same read-out and setting: the same measure for `NS(=O)(=O)c1cc2c(cc1Cl)NCNS2(=O)=O` [HYDROCHLOROTHIAZIDE]: -2. Still for that read-out and setting: the same measure for `Cl.Clc1cccc(Cl)c1NC1=NCCN1` [CLONIDINE HYDROCHLORIDE]: -0.68; for `CC(=O)[C@H]1CC[C@H]2[C@@H]3CCC4=CC(=O)CC[C@]4(C)[C@H]3CC[C@]12C` [PROGESTERONE]: 1.08; for `NC(=O)N1c2ccccc2C=Cc2ccccc21` [CARBAMAZEPINE]: 0.18.

As for `CCOC(=O)[C@H](CCc1ccccc1)N[C@@H](C)C(=O)N1CCC[C@H]1C(=O)O.O=C(O)/C=C\C(=O)O` [ENALAPRIL MALEATE], the “log Pe” value is -1.72.

System in another series: not listed separately
The series can be described thus: Lipophilicity, log D of the compound. It is filed as physicochemical. The following applies: octanol/water.
`NS(=O)(=O)c1cc2c(cc1Cl)N=CNS2(=O)=O` [CHLOROTHIAZIDE] showed a logD of -0.78.

As to `O=C(O)c1cc(/N=N/c2ccc(S(=O)(=O)Nc3ccccn3)cc2)ccc1O` [SULFASALAZINE], the logD stood at 0.05. As for `COc1ccc2[nH]c([S+]([O-])Cc3ncc(C)c(OC)c3C)nc2c1` (centres undefined) [OMEPRAZOLE], the logD was 2.16.

The compound `C[C@]12CC[C@H]3[C@@H](CCC4=CC(=O)CC[C@@]43C)[C@@H]1CC[C@@H]2O` [TESTOSTERONE] had a logD of 3.48.

Compound `CN(C)CCCN1c2ccccc2Sc2ccc(Cl)cc21` [CHLORPROMAZINE] had a logD of 2.15. Still for that read-out and setting: to `C[C@]12CCC(=O)C=C1CC[C@@H]1[C@@H]2[C@@H](O)C[C@@]2(C)[C@H]1CC[C@]2(O)C(=O)CO` [HYDROCORTISONE] belongs 1.43; to `C[C@@H]1C[C@H]2[C@@H]3CCC4=CC(=O)C=C[C@]4(C)[C@@]3(F)[C@@H](O)C[C@]2(C)[C@H]1C(=O)CO` [DESOXIMETASONE], 2.

Take `COc1ccc2c(c1)c(CC(=O)O)c(C)n2C(=O)c1ccc(Cl)cc1` [INDOMETHACIN]: the logD stood at 0.59.

For the compound `CC1(C)C(=O)N(c2ccc(C#N)c(C(F)(F)F)c2)C(=O)N1CCCCO` [RU-58841], the logD stood at 2.41. The compound `N#Cc1ccc(-c2ccccc2O)cc1C(F)(F)F` showed a logD of 3.63.

The compound `Oc1cccc2ncccc12` yielded a logD of 1.46. The same measure, in the same setting: the same measure for `CC(=O)Nc1cnc(-c2ccccc2)o1`: 1.22; for `CC(C(=O)O)c1cccc(C(=O)c2ccccc2)c1` (centres undefined) [KETOPROFEN]: 0.56; for `Nc1cc(N2CCCCC2)nc(N)[n+]1[O-]` [MINOXIDIL]: -3.99. On the same count and under the same terms, the same measure for `Cl.Clc1cccc(Cl)c1NC1=NCCN1` [CLONIDINE HYDROCHLORIDE]: 0.37; for `C[C@]12C[C@H](O)[C@H]3[C@@H](CCC4=CC(=O)CC[C@@]43C)[C@@H]1CC[C@@H]2C(=O)CO` [CORTICOSTERONE]: 1.76; for `C[C@H](c1ccccc1)N(C)c1cc(C(F)(F)F)c(C#N)cn1`: 5.59. Same read-out and setting: to `CN1C(C(=O)Nc2ccccn2)=C(O)c2ccccc2S1(=O)=O` [PIROXICAM] belongs -0.35. With `O=C(O)c1cccnc1Nc1cccc(C(F)(F)F)c1` [NIFLUMIC ACID], the log distribution coefficient (logD) amounted to 2.01. Same read-out and setting: to `Nc1ccc(S(=O)(=O)Nc2ccccn2)cc1` [SULFAPYRIDINE] belongs 0.03; to `CC(=O)CC(c1ccccc1)c1c(O)c2ccccc2oc1=O` (centres undefined) [WARFARIN], 1.43; to `COCCc1ccc(OCC(O)CNC(C)C)cc1` (centres undefined) [METOPROLOL], -0.81. The same measure, in the same setting: the same measure for `NC(=O)N1c2ccccc2C=Cc2ccccc21` [CARBAMAZEPINE]: 2.67; for `CC(C)(C)NCC(O)c1cc(O)cc(O)c1` (centres undefined) [TERBUTALINE]: -2.14. On the same count and under the same terms, to `Clc1ccc(COC(Cn2ccnc2)c2ccc(Cl)cc2Cl)c(Cl)c1` (centres undefined) [MICONAZOLE] belongs 5.55; to `C[C@@H]1C[C@H]2[C@@H]3CCC4=CC(=O)C=C[C@]4(C)[C@@]3(F)[C@@H](O)C[C@]2(C)[C@@]1(O)C(=O)CO` [DEXAMETHASONE], 1.87. The compound `Cc1nn(-c2ccccc2)c(C)c1/C=N/N1CCN(Cc2ccccc2)CC1` returned a logD of 3.65. Still for that read-out and setting: the same measure for `CC(C)(C)c1ccc(C(O)CCCN2CCC(C(O)(c3ccccc3)c3ccccc3)CC2)cc1` (centres undefined) [TERFENADINE]: 3.72; for `CC(C)Cn1c(=O)n(C)c(=O)c2[nH]cnc21` [ISOBUTYLMETHYLXANTHINE]: 2; for `CCOC(=O)[C@H](CCc1ccccc1)N[C@@H](C)C(=O)N1CCC[C@H]1C(=O)O.O=C(O)/C=C\C(=O)O` [ENALAPRIL MALEATE]: -0.55. On the same count and under the same terms, the same measure for `CCCn1c(=O)[nH]c(=O)c2[nH]cnc21` [ENPROFYLLINE]: 0.27; for `Cc1cc(=O)n(-c2ccccc2)n1C` [ANTIPYRINE]: 0.27.

As usually defined, the logD is the decadic logarithm of the distribution of all forms, ionised or not, between an organic phase and buffer at a given pH. A high value points to a more lipophilic compound.
